{
  "source": "patent US12293809B2",
  "about": "“Workflow for generating compounds with biological activity against a specific biological target” (INSILICO MEDICINE IP LIMITED, priority 2019, dated 2025)",
  "key": {"[1]": {"assay": "Microsomal stability (MLM)", "protocol": "(§1) Cold acetonitrile (ACN) including 100 ng/mL Tolbutamide and 100 ng/mL Labetalol as internal standard (IS) were used for stop solution. 10 μL compound or control working solution/well was added to all plates (T0, T5, T10, T20, T30, T60, NCF60) except matrix blank. Dispense 80 μL/well microsome solution was added to every plate by Apricot, the mixture of microsome solution and compound were incubated at 37° C. for about 10 min. After pre-warming, dispense 10 μL/well NADPH regenerating system was added to every plate by Apricot to start reaction. The solution was then incubated at 37° C. 300 (μL/well) stop solution (cold in 4° C.) was added to terminate the reaction. The sampling plates were shaken for approximately 10 min. Samples were centrifuged at 4000 rpm for 20 min under 4° C. While centrifuging, 8×new 96-well plate were loaded with 300 μL HPLC water, then 100 μL supernatant was transferred and mixed for LC/MS/MS."}, "[2]": {"tested_on": "α-actin (α-SMA) production in LX-2 cells", "assay": "LX-2 fibrosis assay, TGF-β stimulated (Western blot)", "format": "cell-based, human", "conditions": "14 nM", "protocol": "Collagen α1, α-SMA, CTGF and GAPDH were traced using Western blot analysis.\nAfter 20 h growth in the reduced serum medium, the cells were treated with indicated doses of compounds for 30 minutes."}, "hDDR1 [3]": {"biological_target": "T1, hDDR1 (Homo sapiens, UniProt Q08345)", "T1 sequence (Q08345 19-913)": "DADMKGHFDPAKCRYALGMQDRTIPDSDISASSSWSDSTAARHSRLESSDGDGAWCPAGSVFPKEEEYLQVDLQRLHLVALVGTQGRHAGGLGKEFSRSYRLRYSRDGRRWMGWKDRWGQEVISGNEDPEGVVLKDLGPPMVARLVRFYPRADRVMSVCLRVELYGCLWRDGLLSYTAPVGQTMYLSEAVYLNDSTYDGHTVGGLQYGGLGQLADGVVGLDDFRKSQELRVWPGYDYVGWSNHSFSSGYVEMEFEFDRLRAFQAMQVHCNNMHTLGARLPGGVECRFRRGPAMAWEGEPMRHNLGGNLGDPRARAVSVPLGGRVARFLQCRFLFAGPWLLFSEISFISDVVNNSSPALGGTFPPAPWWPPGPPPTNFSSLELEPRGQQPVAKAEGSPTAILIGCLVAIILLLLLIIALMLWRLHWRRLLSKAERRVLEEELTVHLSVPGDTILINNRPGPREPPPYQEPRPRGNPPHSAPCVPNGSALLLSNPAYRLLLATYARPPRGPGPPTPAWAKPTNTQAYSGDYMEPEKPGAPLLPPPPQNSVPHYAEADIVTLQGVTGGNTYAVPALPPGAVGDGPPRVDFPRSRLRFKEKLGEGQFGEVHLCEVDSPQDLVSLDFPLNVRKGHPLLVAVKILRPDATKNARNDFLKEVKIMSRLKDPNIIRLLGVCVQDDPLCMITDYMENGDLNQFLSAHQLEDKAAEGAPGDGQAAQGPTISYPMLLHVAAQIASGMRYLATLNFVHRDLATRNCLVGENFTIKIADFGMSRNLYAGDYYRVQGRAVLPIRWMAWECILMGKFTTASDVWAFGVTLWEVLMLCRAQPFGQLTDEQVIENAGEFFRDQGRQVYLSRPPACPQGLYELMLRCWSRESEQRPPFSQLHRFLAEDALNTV", "assay": "KinaseProfiler radiometric biochemical kinase assay (Eurofins)", "design": "purchased Eurofins 14-942KP10", "protocol": "The experimental procedures were performed by Eurofins. The activity of the molecules against hDDR1 and hDDR2 kinases was assessed using KinaseProfiler^67. […] The enzymatic reaction processed in the presence of Mg^2+ cations and ATP at room temperature for 40 minutes and terminated by addition of phosphoric acid. […] All the compounds were prepared in 100% DMSO. […] The biological evaluation of selectivity against non-target kinases was performed in Dundee Eurofins, using Scan Max Delta Panel [10 μM ATP] KinaseProfiler^68."}, "hDDR1 [4]": {"biological_target": "T1, hDDR1", "assay": "Rescreen in another biochemical assay (Thermo Fisher-PR6913A)", "conditions": "read-out: IC50 towards DDR1 kinase, rescreen", "protocol": "In the present example, six molecules were generated, selected, and synthesized and were submitted for biological testing (e.g., within 35 days). […] Since the dose-response curves for Compounds 2 and 4 seemed likely inconsistent, additional experiments were performed to confirm the activity of these molecules towards DDR1 kinase (see FIG. 4B). […] Compounds 1 and 2 were also evaluated towards DDR2 kinase.\nFIGS. 4A-4B show the structures and dose-response curves for the generated molecules. The six generated compounds were tested in a dose-dependent manner against DDR1 tyrosine kinase."}, "[5]": {"assay": "Microsomal stability (DLM)", "conditions": "for Remaining (*NCF = 60 min) / Remaining (T = 60 min): 1 h", "protocol": "as §1"}, "pKa": {"assay": "pKa", "format": "physicochemical", "protocol": "(§2) Since Compound 2 contains an imidazolidine fragment typically unusual in drug discovery we experimentally assessed key properties for this molecule. […] The inhibition activity of Compounds 1 and 2 towards a small panel of key cytochrome P450 (CYP450) isoforms was also assessed in vitro (Table 2)."}, "Human DDR1b": {"biological_target": "T2, Human DDR1b (Homo sapiens, UniProt Q08345)", "T2 construct": "expressed in transfected cells", "T2 sequence (Q08345 19-913)": "as above", "assay": "DDR1 autophosphorylation in collagen-stimulated U2OS cells (Western blot)", "format": "cell-based", "conditions": "normalized to HA and GAPDH", "protocol": "The amount of activated DRR1 (Y543) was measured using Western blot analysis, the obtained data were normalized to HA and GAPDH protein levels.\nHuman DDR1b gene with HA-tag was cloned into pCMV Tet-On vector (Clontech) and stable inducible cell lines established in U2OS were used for the IC50 test. […] The cells were detached with trypsinization and transferred to a 15-ml tube."}, "Kinetic solubility": {"assay": "Kinetic solubility", "format": "physicochemical", "conditions": "pH=7.4", "protocol": "as §2"}, "[6]": {"assay": "Mouse PK study, IV administration", "format": "in vivo", "conditions": "IV 10 mg/kg, M01-M03 individual"}, "eEF-2K": {"biological_target": "T3, eEF-2K (Homo sapiens, UniProt O00418)", "T3 construct": "purchased Eurofins 50-100KP10", "assay": "scanMAX Delta Kinase Panel (Eurofins), single concentration", "format": "biochemical", "conditions": "10 μM; highest inhibition within the panel", "protocol": "The issue of selectivity is of vital importance for a lead compound to estimate possible off-target effects that can influence the pre-clinical evaluation success. […] DDR1 kinase is mostly expressed in epithelial cells, whereas the expression of DDR2 is generally observed in […]. Even though that the prevention of fibrosis is the primary goal, the selectivity over DDR2 kinase is also a very important consideration.\nThe experimental procedures were performed by Eurofins. The activity of the molecules against hDDR1 and hDDR2 kinases was assessed using KinaseProfiler^67. The enzyme sample was incubated with 8 mM MOPS buffer (pH=7.0), 0.2 mM EDTA, […] target protein hDDR1 and hDDR2 kinases, 10 mM Magnesium acetate/Manganese chloride, respectively, and [γ-^33P]-ATP. The enzymatic reaction processed in the presence of Mg^2+ cations and ATP at room temperature for 40 minutes and terminated by addition of phosphoric acid. The reaction mixture (10 μL) was spotted onto a P30 filtermat and washed four times using 0.425% phosphoric acid and once with methanol. All the compounds were prepared in 100% DMSO. […] The biological evaluation of selectivity against non-target kinases was performed in Dundee Eurofins, using Scan Max Delta Panel [10 μM ATP] KinaseProfiler^68."}},
  "note": "“And” between values parts separate entries of the source, which are not always exact repeats. Identical values can stand only once.",
  "data": [
    {"smiles": "O=C(Nc1cccc(C(=O)N2CCN(c3ccnc4[nH]ccc34)C2)c1)c1cccc(C(F)(F)F)c1", "note": "[Compound 2]", "values": [
      {"measurement": "CLint(mic)", "setting": "[1]; MLM 0.5", "result": 91.8},
      {"measurement": "T1/2", "setting": "[1]; mouse, microsomes", "result": 15.1, "unit": "min"},
      {"measurement": "Remaining (*NCF = 60 min)", "setting": "[1]; mouse, microsomes, 1 h", "result": 86.0, "unit": "%"},
      {"measurement": "Remaining (T = 60 min)", "setting": "[1]; mouse, microsomes, 1 h", "result": 5.3, "unit": "%"},
      {"measurement": "inhibition of α-SMA", "setting": "[2]", "result": 15, "unit": "%"},
      {"measurement": "activity against DDR1 kinase (in words)", "setting": "hDDR1 [3]", "result": "low nanomolar range"},
      {"measurement": "LE** = 1.4*(pIC50)/N", "setting": "hDDR1 [3]; N number of heavy atoms", "result": 0.31},
      {"measurement": "IC50", "setting": "hDDR1 [3]; read-out: IC50, inhibition of DDR1 activity", "result": 21, "unit": "nM"},
      {"measurement": "IC50", "setting": "hDDR1 [4]", "result": "37 nM and 37.1 nM"},
      {"measurement": "CLint(mic)", "setting": "[5]; DLM 0.5", "result": 162.6},
      {"measurement": "CLint(mic)", "setting": "[5]; HLM 0.5", "result": 108.2},
      {"measurement": "T1/2", "setting": "[5]; dog, microsomes", "result": 8.5, "unit": "min"},
      {"measurement": "Remaining (*NCF = 60 min)", "setting": "[5]; dog, microsomes", "result": 99.9, "unit": "%"},
      {"measurement": "Remaining (T = 60 min)", "setting": "[5]; dog, microsomes", "result": 0.6, "unit": "%"},
      {"measurement": "T1/2", "setting": "[5]; human, microsomes", "result": 12.8, "unit": "min"},
      {"measurement": "Remaining (*NCF = 60 min)", "setting": "[5]; human, microsomes", "result": 88.7, "unit": "%"},
      {"measurement": "Remaining (T = 60 min)", "setting": "[5]; human, microsomes", "result": 2.8, "unit": "%"},
      {"measurement": "CLint(mic)", "setting": "[5]; rat, microsomes", "result": 80.6},
      {"measurement": "T1/2", "setting": "[5]; rat, microsomes", "result": 17.2, "unit": "min"},
      {"measurement": "Remaining (*NCF = 60 min)", "setting": "[5]; rat, microsomes", "result": 88.3, "unit": "%"},
      {"measurement": "Remaining (T = 60 min)", "setting": "[5]; rat, microsomes", "result": 7.1, "unit": "%"},
      {"measurement": "pKa", "setting": "pKa", "result": 6.99},
      {"measurement": "IC50", "setting": "Human DDR1b", "result": 5.8, "unit": "nM"},
      {"measurement": "kinetic solubility", "setting": "Kinetic solubility", "result": 1.09, "unit": "µg/mL"}
    ]},
    {"smiles": "Cc1ccc2c(Nc3cccc(C(F)(F)F)c3)noc2c1C#Cc1cnc2cccnn12", "note": "[Compound 1]", "values": [
      {"measurement": "Tlast", "setting": "[6]; c4 Mean", "result": "24.0 ± — h"},
      {"measurement": "AUC0-inf", "setting": "[6]; c4 Mean ± SD", "result": "6888 ± 359", "unit": "ng·h/mL"},
      {"measurement": "AUC0-last", "setting": "[6]; c4 Mean ± SD", "result": "6830 ± 349", "unit": "ng·h/mL"},
      {"measurement": "AUCExtra", "setting": "[6]; c4 Mean ± SD", "result": "0.845 ± 0.104", "unit": "%"},
      {"measurement": "AUMCExtra", "setting": "[6]; c4 Mean ± SD", "result": "5.42 ± 0.663", "unit": "%"},
      {"measurement": "C0", "setting": "[6]; c4 Mean ± SD", "result": "2598 ± 572", "unit": "ng/mL"},
      {"measurement": "Cl", "setting": "[6]; c4 Mean ± SD", "result": "19.1 ± 0.970", "unit": "mL/min/kg"},
      {"measurement": "MRT0-inf", "setting": "[6]; c4 Mean ± SD", "result": "274 ± 11.6", "unit": "min"},
      {"measurement": "MRT0-last", "setting": "[6]; c4 Mean ± SD", "result": "261 ± 11.2", "unit": "min"},
      {"measurement": "T1/2", "setting": "[6]; c4 Mean ± SD", "result": "219 ± 7.38", "unit": "min"},
      {"measurement": "Vdss", "setting": "[6]; c4 Mean ± SD", "result": "5.21 ± 0.349", "unit": "L/kg"},
      {"measurement": "INH %", "setting": "eEF-2K", "result": 37, "unit": "%"}
    ]}
  ]
}
